Test [1] concerns the target Melanocortin receptor 4 (Homo sapiens, UniProt P32245). The test is described as follows: inhibitors of MC4R cAMP signaling – cell-based, TR-FRET, biased antagonists, dose response (AID 602298).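 Further: antagonist potency against agonist-stimulated cAMP production.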 The format is functional.
Test [2] can be described thus: cAMP pathway inhibition in counterscreen cell line – TR-FRET cAMP detection, counter-screen for MC4R biased antagonist project, dose response (AID 602305).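 Further: U2OS cells stimulated with forskolin near its EC80 as the cAMP inducer; potency is for inhibition of forskolin-stimulated cAMP signaling.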 The format is functional, cell-based.
Test [3] has as its target T1, ATP-dependent translocase ABCB1 (Homo sapiens, UniProt P08183). The test is described as follows: P-gp JC-1 efflux blockade concentration-response – Jurkat-DNR cells, flow cytometry, set 2, dose response (AID 504569).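 Further: potency of pump inhibitors that raise cellular JC-1 green fluorescence up to the nicardipine level.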 The format is functional. As to conditions: read-out: EC50_MICROM_. Background: Flow cytometry measures light scatter and fluorescence of single cells or particles in a stream.

Test [4] deals with T1, ATP-dependent translocase ABCB1. The test is described as follows: inhibition of BCRP-mediated JC-1 efflux – Ig-MXP3 cells, flow cytometry, set 2, dose response (AID 504566).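 Further: flow cytometry median green fluorescence of retained JC-1 dye; potency of efflux pump inhibition measured as rising substrate retention.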 The format is functional. As to conditions: read-out: EC50_MICROM_.
The target in test [5] is DNA (cytosine-5)-methyltransferase 1 (Homo sapiens, UniProt P26358). The test is described as follows: inhibition of DNA methylation by DNMT1 – biochemical, fluorescent molecular beacon, confirmation (AID 602386). The format is functional.
Test [6] addresses Tyrosine-protein kinase JAK3 (Homo sapiens, UniProt P52333). The format is functional.
The target of test [7] is Mitochondrial peptide methionine sulfoxide reductase (Bos taurus, UniProt P54149). The format is functional.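 Further: absorbance read-out, biochemical high-throughput dose-response screen for MsrA inhibitors, confirmatory; recombinant bovine MsrA coupled to E. coli TrxB with NADPH and selenocystamine; potency is for inhibitors of MsrA activity on DMSO substrate.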
The target of test [8] is Aurora kinase A (Homo sapiens, UniProt O14965). The format is functional.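 Further: value from the Navigating the Kinome kinase panel profiling, panel entry STK6.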
In test [9] the target is ALK tyrosine kinase receptor (Homo sapiens, UniProt Q9UM73). The format is functional.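 Further: ALK tested as one member of a kinase panel screen.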
The target of test [10] is 26S proteasome non-ATPase regulatory subunit 14 (Homo sapiens, UniProt O00487). The test is described as follows: inhibition of proteasome subunit RPN11 – biochemical, fluorescence polarization, uHTS hits, confirmation (AID 602368). The format is functional. (In general: Polarisation of emitted light reports the rotation of a fluorescent probe.)
Test [11] deals with Genome polyprotein (dengue virus type 2, UniProt P29990). The test is described as follows: flavivirus cap methylation enzyme inhibition – biochemical, confirmation dose response, primary screen (AID 588689). The format is functional.
Test [12] addresses Prothrombin (Bos taurus, UniProt P00735). The test is described as follows: thrombin protease inhibitors – biochemical, fluorescence polarization, uHTS hits, dose response (AID 602369). The format is functional.
Test [13] has as its target T2, Small ubiquitin-related modifier 1 (Homo sapiens, UniProt P63165). The test is described as follows: SUMO1 protein-protein binding blockers, potency – biochemical, FRET, dose response (AID 624383). The format is functional. As to conditions: read-out: IC50_Mean.
Test [14] addresses T3, Zinc finger protein mex-5 (Caenorhabditis elegans, UniProt Q9XUB2).
T3 sequence (Q9XUB2 whole entry): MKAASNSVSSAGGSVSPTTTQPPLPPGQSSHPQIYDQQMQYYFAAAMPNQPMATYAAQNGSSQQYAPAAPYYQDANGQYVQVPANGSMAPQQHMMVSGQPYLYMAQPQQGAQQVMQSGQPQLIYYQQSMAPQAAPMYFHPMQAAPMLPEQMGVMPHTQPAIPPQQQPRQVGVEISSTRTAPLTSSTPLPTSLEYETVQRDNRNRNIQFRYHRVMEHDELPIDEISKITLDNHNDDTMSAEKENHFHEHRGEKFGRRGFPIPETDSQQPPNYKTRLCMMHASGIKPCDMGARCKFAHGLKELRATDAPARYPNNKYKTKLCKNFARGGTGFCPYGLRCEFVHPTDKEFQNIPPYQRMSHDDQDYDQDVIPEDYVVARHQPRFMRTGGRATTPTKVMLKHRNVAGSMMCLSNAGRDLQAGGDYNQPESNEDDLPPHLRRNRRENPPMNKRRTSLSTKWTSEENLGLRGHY
The test is described as follows: potency of MEX-5 RNA-binding blockers – biochemical, C. elegans, fluorescence polarization, dose response (AID 1960).

The target of test [15] is 72 kDa type IV collagenase (Homo sapiens, UniProt P08253). The test is described as follows: Dose Response validation of uHTS RPN11 inhibitor hits using a MMP-2 Fluorescence assay. The format is functional.
The target of test [16] is Large T antigen (Simian virus 40, UniProt P03070). The format is functional, Betapolyomavirus macacae.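 Further: Confirmatory-stage PubChem screen for compounds that inhibit SV40 T antigen.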
The target in test [17] is T4, ORF 73 (Human herpesvirus 8, UniProt O40947).
T4 sequence (O40947 whole entry): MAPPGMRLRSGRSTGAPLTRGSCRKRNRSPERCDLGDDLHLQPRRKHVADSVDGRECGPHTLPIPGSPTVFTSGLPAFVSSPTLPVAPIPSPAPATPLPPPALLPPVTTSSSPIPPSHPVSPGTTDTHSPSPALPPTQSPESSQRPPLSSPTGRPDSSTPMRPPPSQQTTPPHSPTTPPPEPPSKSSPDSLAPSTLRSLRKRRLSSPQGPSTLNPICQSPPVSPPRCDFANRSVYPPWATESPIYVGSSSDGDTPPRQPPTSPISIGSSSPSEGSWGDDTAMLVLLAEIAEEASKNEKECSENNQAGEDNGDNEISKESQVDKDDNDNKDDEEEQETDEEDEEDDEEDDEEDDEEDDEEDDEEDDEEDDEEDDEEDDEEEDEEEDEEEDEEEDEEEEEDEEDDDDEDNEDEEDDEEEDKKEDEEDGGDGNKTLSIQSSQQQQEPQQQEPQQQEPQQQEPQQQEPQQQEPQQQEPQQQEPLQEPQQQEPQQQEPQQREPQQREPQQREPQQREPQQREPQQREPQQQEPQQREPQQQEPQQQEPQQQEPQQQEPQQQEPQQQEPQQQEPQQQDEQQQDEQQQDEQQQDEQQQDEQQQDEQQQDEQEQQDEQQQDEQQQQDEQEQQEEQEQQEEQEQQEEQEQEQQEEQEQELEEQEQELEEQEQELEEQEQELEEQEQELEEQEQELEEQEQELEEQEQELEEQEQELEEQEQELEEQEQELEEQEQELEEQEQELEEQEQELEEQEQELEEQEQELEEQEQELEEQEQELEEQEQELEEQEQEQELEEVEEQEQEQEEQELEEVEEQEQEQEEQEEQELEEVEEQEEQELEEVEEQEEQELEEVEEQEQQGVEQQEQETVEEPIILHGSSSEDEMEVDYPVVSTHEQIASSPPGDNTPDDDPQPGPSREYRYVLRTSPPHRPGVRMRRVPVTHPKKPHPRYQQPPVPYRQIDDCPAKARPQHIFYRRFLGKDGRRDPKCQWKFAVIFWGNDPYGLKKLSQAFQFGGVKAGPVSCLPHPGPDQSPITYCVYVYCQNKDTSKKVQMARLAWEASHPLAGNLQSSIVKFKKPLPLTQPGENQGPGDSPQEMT
The test is described as follows: KSHV LANA DNA-binding disruption – biochemical, fluorescence polarization, cherry-picked samples, dose response (AID 504725).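 Further: fluorescence polarization of a labeled DNA duplex reporting LANA DNA binding; potency is for inhibitors that block LANA binding to the DNA.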 Further details: species or system Human gammaherpesvirus 8.

For test [18], the target named is T5, RNA-binding protein pos-1 (Caenorhabditis elegans, UniProt G5EF15).
T5 sequence (G5EF15 whole entry): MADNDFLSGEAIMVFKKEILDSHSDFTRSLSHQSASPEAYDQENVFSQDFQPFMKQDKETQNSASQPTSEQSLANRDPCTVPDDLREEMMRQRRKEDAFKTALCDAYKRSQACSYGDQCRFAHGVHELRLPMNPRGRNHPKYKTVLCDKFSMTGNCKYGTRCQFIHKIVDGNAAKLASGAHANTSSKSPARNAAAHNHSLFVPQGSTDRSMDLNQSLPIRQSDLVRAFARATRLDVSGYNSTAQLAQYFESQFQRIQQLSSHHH
The test is described as follows: disruptors of C. elegans POS-1 RNA interaction – biochemical, fluorescence polarization, dose response (AID 1964).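 Further: purified POS-1 fused to maltose binding protein made in E. coli; potency of compounds blocking POS-1 binding to fluorescent RNA.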

Test [19] deals with T6, Cysteine protease ATG4B (Homo sapiens, UniProt Q9Y4P1).
T6 sequence (Q9Y4P1 whole entry): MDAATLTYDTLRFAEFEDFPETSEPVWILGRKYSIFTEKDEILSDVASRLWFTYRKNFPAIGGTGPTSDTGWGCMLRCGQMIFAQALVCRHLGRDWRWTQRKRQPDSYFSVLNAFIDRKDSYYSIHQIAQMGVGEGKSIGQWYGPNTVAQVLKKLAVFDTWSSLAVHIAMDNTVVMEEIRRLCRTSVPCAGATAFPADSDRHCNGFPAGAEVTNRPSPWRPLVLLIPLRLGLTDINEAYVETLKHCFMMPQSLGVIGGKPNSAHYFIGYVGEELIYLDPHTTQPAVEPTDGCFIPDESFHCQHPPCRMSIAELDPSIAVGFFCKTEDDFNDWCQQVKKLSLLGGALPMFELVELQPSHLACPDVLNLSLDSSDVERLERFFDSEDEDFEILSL
The format is functional.

Test [20] has as its target T2, Small ubiquitin-related modifier 1. The test is described as follows: SUMO1 protein interaction blockers, potency – biochemical, fluorescence polarization, uHTS hits, dose response (AID 624382). The format is functional. As to conditions: read-out: IC50_Mean.
For test [21], the target named is Phospholipase A2 (Homo sapiens, UniProt P04054). The format is functional.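 Further: confirmatory dose-response counterscreen on phospholipase A2, testing hits that came from an ultra-high-throughput screen for ATG4B inhibitors.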
Test [22] has as its target T7, Sentrin-specific protease 1 (Homo sapiens, UniProt Q9P0U3). The test is described as follows: SENP1 catalytic domain blockers, concentration series – biochemical, kinetic FRET, dose response (AID 651697). The format is functional. As to conditions: read-out: IC50_Mean.
In test [23] the target is T7, Sentrin-specific protease 1. The test is described as follows: Dose response confirmation of small molecule inhibitors of the catalytic domain of the SUMO protease, SENP1 in a FRET assay. The format is functional. As to conditions: read-out: IC50_Mean.
The target in test [24] is Hepatocyte nuclear factor 4-alpha (Homo sapiens, UniProt P41235). The format is functional, cell-based.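 Further: biochemical luminescence-based dose-response counterscreen measuring inhibition of HNF4 dimerization, run alongside a screen for blockers of ABHD5–perilipin-5 interaction; split luciferase complementation of HNF4 fusion proteins in cell lysate measuring dimerization.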
The target in test [25] is Paired box protein Pax-8 (Homo sapiens, UniProt Q06710). The test is described as follows: PAX8 transcriptional activity inhibition in RMG-I – RMG-I cells, luciferase, cherry-pick, dose response (AID 687027).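 Further: luciferase reporter driven by Pax8 target thyroperoxidase promoter measured by SteadyGlo luminescence.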 The format is functional, cell-based.
Test [26] deals with Dual specificity protein kinase CLK2 (Homo sapiens, UniProt P49760). The format is functional.
For test [27], the target named is G protein-coupled receptor kinase 5 (Homo sapiens, UniProt P34947). The test is described as follows: Navigating the Kinome. Panel member name: GPRK5. The format is functional.

Broadly, the Ki is the equilibrium dissociation constant of an inhibitor or competing ligand from its target. In general, AC50 refers to the concentration at which the activity in the assay is half-maximal.

The source made the active and inactive calls. Some results are limits rather than exact numbers.

T7 sequence (Q9P0U3 whole entry, the tested form may be a part): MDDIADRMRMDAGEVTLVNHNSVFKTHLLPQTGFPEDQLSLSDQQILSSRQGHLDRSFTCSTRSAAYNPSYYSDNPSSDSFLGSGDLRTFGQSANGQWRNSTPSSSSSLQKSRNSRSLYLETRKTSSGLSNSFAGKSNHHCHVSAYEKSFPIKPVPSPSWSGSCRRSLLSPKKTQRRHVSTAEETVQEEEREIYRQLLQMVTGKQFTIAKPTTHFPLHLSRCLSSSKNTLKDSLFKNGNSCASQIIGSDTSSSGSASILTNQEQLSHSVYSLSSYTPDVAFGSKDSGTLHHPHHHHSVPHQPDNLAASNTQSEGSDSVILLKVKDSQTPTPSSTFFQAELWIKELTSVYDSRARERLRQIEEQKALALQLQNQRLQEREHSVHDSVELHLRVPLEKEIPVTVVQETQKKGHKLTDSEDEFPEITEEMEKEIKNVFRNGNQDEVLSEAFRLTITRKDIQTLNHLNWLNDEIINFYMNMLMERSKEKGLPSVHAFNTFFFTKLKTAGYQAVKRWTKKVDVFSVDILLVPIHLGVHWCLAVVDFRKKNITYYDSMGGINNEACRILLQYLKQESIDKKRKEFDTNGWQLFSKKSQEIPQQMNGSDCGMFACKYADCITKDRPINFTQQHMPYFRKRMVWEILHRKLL
T1 sequence (P08183 whole entry): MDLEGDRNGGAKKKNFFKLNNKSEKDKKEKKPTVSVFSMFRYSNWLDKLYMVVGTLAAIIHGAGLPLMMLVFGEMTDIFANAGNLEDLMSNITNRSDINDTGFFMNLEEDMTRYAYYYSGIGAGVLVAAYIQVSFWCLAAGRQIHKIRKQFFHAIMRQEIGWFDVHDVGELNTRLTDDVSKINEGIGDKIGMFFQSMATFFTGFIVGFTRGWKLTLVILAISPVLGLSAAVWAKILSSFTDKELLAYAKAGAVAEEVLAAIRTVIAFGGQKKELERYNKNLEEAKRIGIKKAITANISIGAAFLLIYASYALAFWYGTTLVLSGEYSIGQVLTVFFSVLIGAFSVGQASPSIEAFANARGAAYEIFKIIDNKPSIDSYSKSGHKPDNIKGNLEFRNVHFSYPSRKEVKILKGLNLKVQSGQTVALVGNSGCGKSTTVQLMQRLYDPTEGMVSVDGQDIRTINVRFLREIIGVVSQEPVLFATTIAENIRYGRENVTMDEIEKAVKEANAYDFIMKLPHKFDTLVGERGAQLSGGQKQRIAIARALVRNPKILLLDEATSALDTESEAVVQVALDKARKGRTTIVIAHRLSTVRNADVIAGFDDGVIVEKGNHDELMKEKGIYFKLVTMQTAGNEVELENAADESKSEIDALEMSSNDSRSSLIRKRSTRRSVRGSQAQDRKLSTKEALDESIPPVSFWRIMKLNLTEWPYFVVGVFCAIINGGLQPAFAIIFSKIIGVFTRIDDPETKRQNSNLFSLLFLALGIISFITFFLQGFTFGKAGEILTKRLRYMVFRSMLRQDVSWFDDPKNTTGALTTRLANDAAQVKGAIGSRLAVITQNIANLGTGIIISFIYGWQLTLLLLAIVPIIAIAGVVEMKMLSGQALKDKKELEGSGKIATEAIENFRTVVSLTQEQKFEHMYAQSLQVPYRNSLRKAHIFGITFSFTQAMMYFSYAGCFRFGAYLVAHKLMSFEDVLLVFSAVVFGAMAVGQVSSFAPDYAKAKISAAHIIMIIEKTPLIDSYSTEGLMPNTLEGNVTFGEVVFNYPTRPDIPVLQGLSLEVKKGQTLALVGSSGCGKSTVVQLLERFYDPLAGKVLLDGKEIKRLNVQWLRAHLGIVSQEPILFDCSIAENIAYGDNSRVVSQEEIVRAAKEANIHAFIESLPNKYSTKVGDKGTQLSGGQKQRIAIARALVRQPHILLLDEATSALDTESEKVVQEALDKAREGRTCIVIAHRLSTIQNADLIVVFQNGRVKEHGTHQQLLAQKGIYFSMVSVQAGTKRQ
T2 sequence (P63165 whole entry): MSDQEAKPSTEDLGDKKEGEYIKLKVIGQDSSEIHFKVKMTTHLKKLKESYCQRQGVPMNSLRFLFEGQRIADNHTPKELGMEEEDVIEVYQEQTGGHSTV
Chain of 72 kDa type IV collagenase (P08253 whole entry): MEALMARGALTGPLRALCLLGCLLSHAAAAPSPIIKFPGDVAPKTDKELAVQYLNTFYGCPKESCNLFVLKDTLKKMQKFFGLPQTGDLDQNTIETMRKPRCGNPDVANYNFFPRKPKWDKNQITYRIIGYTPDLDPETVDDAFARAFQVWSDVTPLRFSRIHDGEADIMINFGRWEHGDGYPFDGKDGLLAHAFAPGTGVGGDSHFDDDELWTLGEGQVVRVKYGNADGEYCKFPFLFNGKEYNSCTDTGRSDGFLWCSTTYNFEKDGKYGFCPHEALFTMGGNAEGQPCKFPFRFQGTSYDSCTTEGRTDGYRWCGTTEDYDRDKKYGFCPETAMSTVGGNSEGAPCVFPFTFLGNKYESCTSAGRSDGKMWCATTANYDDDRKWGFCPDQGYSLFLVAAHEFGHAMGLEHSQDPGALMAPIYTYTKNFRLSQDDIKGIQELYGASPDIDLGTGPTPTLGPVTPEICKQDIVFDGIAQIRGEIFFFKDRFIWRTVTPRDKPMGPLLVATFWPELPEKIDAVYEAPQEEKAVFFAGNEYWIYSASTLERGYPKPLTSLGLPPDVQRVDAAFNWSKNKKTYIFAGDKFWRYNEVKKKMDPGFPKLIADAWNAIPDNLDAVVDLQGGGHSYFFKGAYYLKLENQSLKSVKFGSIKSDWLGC
Chain of Large T antigen (P03070 whole entry): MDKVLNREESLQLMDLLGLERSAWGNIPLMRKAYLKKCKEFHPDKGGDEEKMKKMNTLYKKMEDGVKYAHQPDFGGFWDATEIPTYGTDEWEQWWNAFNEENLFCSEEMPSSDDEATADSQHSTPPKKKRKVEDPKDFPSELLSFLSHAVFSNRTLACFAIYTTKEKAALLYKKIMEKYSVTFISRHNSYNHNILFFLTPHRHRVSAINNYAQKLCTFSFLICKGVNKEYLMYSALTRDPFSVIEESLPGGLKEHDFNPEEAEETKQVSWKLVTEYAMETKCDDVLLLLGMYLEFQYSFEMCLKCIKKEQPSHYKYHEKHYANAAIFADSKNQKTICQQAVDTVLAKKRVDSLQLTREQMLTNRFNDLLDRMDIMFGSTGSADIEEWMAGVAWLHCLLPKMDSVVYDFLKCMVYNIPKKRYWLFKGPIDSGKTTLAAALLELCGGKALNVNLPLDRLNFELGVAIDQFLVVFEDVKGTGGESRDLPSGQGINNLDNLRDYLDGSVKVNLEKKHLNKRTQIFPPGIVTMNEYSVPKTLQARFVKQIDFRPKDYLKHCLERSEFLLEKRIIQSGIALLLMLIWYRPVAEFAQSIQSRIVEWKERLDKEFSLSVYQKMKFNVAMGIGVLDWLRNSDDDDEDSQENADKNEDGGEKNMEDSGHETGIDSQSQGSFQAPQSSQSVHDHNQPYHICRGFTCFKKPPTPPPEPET
Chain of Paired box protein Pax-8 (Q06710 whole entry): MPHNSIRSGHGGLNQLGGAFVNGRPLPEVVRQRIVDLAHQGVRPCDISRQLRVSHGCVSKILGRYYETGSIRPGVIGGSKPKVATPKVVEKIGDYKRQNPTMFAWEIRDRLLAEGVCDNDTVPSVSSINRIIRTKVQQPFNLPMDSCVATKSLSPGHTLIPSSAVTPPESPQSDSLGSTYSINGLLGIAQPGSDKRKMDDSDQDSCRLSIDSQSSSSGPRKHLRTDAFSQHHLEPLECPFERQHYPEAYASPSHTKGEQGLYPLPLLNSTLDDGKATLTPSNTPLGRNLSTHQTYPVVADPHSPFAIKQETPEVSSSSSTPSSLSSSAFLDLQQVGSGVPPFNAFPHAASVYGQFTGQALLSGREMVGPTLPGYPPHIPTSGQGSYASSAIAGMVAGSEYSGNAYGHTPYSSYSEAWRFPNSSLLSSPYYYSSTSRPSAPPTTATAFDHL
Chain of Hepatocyte nuclear factor 4-alpha (P41235 whole entry, the tested form may be a part): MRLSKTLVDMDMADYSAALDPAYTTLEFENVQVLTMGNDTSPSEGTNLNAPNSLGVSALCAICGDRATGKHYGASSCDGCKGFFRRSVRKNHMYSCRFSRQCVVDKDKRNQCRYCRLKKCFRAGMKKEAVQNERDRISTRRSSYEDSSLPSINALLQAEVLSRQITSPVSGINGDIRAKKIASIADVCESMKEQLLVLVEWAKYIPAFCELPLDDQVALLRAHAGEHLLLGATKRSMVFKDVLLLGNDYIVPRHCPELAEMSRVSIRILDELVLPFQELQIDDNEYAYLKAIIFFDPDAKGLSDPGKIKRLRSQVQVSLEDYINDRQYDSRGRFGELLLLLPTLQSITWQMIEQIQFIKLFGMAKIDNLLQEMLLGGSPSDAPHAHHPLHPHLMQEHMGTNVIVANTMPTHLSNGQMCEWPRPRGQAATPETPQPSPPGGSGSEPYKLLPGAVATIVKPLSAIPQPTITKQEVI
Chain of Phospholipase A2 (P04054 whole entry, the tested form may be a part): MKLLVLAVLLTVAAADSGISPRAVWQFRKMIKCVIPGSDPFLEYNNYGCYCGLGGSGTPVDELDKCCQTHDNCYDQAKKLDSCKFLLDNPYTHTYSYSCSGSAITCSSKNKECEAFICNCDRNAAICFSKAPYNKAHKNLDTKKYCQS
Chain of Melanocortin receptor 4 (P32245 whole entry): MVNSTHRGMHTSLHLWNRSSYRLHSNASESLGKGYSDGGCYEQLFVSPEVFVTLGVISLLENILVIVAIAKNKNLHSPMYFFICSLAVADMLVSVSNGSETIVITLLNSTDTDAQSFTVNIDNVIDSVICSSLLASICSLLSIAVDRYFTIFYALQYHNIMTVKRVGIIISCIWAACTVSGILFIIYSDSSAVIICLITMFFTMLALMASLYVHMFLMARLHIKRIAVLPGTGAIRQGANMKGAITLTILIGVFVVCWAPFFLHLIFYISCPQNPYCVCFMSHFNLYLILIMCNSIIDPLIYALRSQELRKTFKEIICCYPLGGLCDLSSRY

As to `COC(=O)c1sc(N)c(C(=O)OC)c1COC(=O)CNS(=O)(=O)c1ccc(C)c(C)c1`, the IC50 in test [1] and in [2] was > 64.6 µM (inactive) throughout.

As for `O=C(c1cccc(Cl)c1)N1CCN(c2cc(-c3ccccc3)nc3cc(-c4cccc(Cl)c4)nn23)CC1`, the results for the EC50 in [3] and in test [4] were 3.16 µM (active) and 2.66 µM (active), respectively.

With `CCOC(=O)C(NC(=O)CC(C)C)(Nc1sc2c(c1C(N)=O)CCCC2)C(F)(F)F` (configuration not stated), the IC50 in test [5] is > 99 µM (inactive).

For the molecule `CC(C)CC(NC(=O)c1cccc(-n2nc(C(C)(C)C)cc2NC(=O)Nc2cccc3ccccc23)c1)C(N)=O` (configuration not stated), the Ki in test [6] is 5.01 µM (active).

For the molecule `C/C(=N\Nc1ccc(C(F)(F)F)cc1[N+](=O)[O-])C1CC1`, the IC50 in [7] is 155 µM (inactive).

With `Cc1cccc(NC(=O)Nc2ccc(-c3csc4c(-c5ccc(NC(=O)CCCN(C)C)cc5)cnc(N)c34)cc2)c1`, the Ki was 0.0501 µM (active) in test [8] and 0.398 µM (active) in test [9].

Consider `O=c1[nH]c(=S)[nH]c2c1C(c1ccc(Br)cc1)c1c([nH]c(=S)[nH]c1=O)O2`, for which the IC50 was 14.5 µM (active) in [10]; 73.7 µM (active) in test [11]; 20.8 µM (active) in test [12]; 10.3 µM (active) in test [13]; 0.0169 µM (active) in test [15]; 21.4 µM (active) in [16]. Besides, the results for the IC50 in test [19], in [20] and in test [21] were 2.96 µM (active), > 66.6 µM (inactive) and 29.2 µM (inactive), respectively. Besides, the figures for the EC50 in [14] and in test [18] were 4.53 µM (active) and 4.86 µM (inconclusive), respectively. The concentration at half-maximal activity (AC50) in [17] was 281 µM (active).

Consider `Nc1ccc2c(c1)-c1ccc(F)cc1C2=O`, for which the IC50 in test [22] was 76.9 µM (inactive); in test [23], 19.4 µM (active).

For the molecule `C#CCN(C[C@@H]1[C@@H](OC(=O)NCc2ccc(OC)c(OC)c2)[C@@H](OC(=O)NCc2ccc(OC)c(OC)c2)Cn2c(=O)ccc(=O)n21)S(=O)(=O)c1ccc(C)cc1`, in test [24], the IC50 is 32.1 µM (inactive). Moreover, the AC50 in test [25] is 3.91 µM (active).

As for `COc1cc2c(Nc3ccc(Br)cc3F)ncnc2cc1OCC1CCN(C)CC1` [VANDETANIB], the values for the Ki in test [26] and in [27] were > 2 µM (inactive) and > 3.98 µM (inactive), respectively.
